Measured values published in PubChem BioAssay (NCI).
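Results reflect a 48-hour exposure of cells in 96-well plates to compound at five concentrations. The concentration for 50% growth inhibition is given as GI50. At the TGI there is no net growth.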

Columns and labels:
Assay in all cases: NCI-60 cell line screen, 48 h
[1] = tested on: A498 renal
[2] = tested on: A549 NSCLC
[3] = tested on: ACHN renal
[4] = tested on: BT-549 breast
[5] = tested on: CAKI-1 renal
[6] = tested on: CCRF-CEM leukemia
[7] = tested on: COLO 205 colon
[8] = tested on: DU-145 prostate
[9] = tested on: EKVX NSCLC
[10] = tested on: HCC-2998 colon
[11] = tested on: HCT-116 colon
[12] = tested on: HCT-15 colon
[13] = tested on: HL-60(TB) leukemia
[14] = tested on: HOP-62 NSCLC
[15] = tested on: HS 578T breast
[16] = tested on: HT29 colon
[17] = tested on: IGROV1 ovarian
[18] = tested on: K-562 leukemia
[19] = tested on: KM12 colon
[20] = tested on: LOX IMVI melanoma
[21] = tested on: M14 melanoma
[22] = tested on: MALME-3M melanoma
[23] = tested on: MCF7 breast
[24] = tested on: MDA-MB-231 breast
[25] = tested on: MOLT-4 leukemia
[26] = tested on: NCI-H226 lung
[27] = tested on: NCI-H23 lung
[28] = tested on: NCI-H460 lung
[29] = tested on: NCI-H522 lung
[30] = tested on: NCI/ADR-RES ovarian
[31] = tested on: OVCAR-3 ovarian
[32] = tested on: OVCAR-4 ovarian
[33] = tested on: OVCAR-5 ovarian
[34] = tested on: OVCAR-8 ovarian
[35] = tested on: PC-3 prostate
[36] = tested on: RPMI-8226 leukemia
[37] = tested on: SF-268 CNS
[38] = tested on: SF-295 CNS
[39] = tested on: SF-539 CNS
[40] = tested on: SK-MEL-2 melanoma
[41] = tested on: SK-MEL-28 melanoma
[42] = tested on: SK-MEL-5 melanoma
[43] = tested on: SK-OV-3 ovarian
[44] = tested on: SN12C renal
[45] = tested on: SNB-19 CNS
[46] = tested on: SNB-75 CNS
[47] = tested on: SR leukemia
[48] = tested on: SW-620 colon
[49] = tested on: T-47D breast
[50] = tested on: TK-10 renal
[51] = tested on: U251 CNS
[52] = tested on: UACC-257 melanoma
[53] = tested on: UACC-62 melanoma
[54] = tested on: UO-31 renal
[55] = tested on: 786-0 renal
[56] = tested on: HOP-92 NSCLC
[57] = tested on: MDA-MB-435
[58] = tested on: RXF 393 renal

Structure (SMILES): O=C(NCc1cn(Cc2cccc(Oc3ccccc3)c2)nn1)c1cccnc1Nc1ccccc1
- GI50 [1]: 1.88 µM
- TGI [1]: 8.19 µM
- GI50 [2]: 4.81 µM
- TGI [2]: 95.2 µM
- GI50 [3]: 5.67 µM
- TGI [3]: > 100 µM
- GI50 [4]: 2.8 µM
- TGI [4]: 8.53 µM
- GI50 [5]: 5.45 µM
- TGI [5]: > 100 µM
- GI50 [6]: 3.34 µM
- TGI [6]: > 100 µM
- GI50 [7]: 2.79 µM
- TGI [7]: 5.75 µM
- GI50 [8]: 3.94 µM
- TGI [8]: 33.8 µM
- GI50 [9]: 5.18 µM
- TGI [9]: > 100 µM
- GI50 [10]: 3.7 µM
- TGI [10]: 21.8 µM
- GI50 [11]: 3.4 µM
- TGI [11]: 23.5 µM
- GI50 [12]: 3.81 µM
- TGI [12]: > 100 µM
- GI50 [13]: 3.74 µM
- TGI [13]: 19.5 µM
- GI50 [14]: 5.58 µM
- TGI [14]: > 100 µM
- GI50 [15]: 3.68 µM
- TGI [15]: > 100 µM
- GI50 [16]: 3.65 µM
- TGI [16]: 11.6 µM
- GI50 [17]: 5.86 µM
- TGI [17]: > 100 µM
- GI50 [18]: 3.69 µM
- TGI [18]: > 100 µM
- GI50 [19]: 3.63 µM
- TGI [19]: 46.4 µM
- GI50 [20]: 4.54 µM
- TGI [20]: > 100 µM
- GI50 [21]: 2.86 µM
- TGI [21]: 9.86 µM
- GI50 [22]: 16.1 µM
- TGI [22]: > 100 µM
- GI50 [23]: 3.67 µM
- TGI [23]: > 100 µM
- GI50 [24]: 2.25 µM
- TGI [24]: 5.97 µM
- GI50 [25]: 3.74 µM
- TGI [25]: > 100 µM
- GI50 [26]: 3.24 µM
- TGI [26]: > 100 µM
- GI50 [27]: 3.73 µM
- TGI [27]: > 100 µM
- GI50 [28]: 2.85 µM
- TGI [28]: 10.5 µM
- GI50 [29]: 2.11 µM
- TGI [29]: 5.06 µM
- GI50 [30]: 2.47 µM
- TGI [30]: > 100 µM
- GI50 [31]: 2.28 µM
- TGI [31]: 5.46 µM
- GI50 [32]: 5.42 µM
- TGI [32]: > 100 µM
- GI50 [33]: 5.73 µM
- TGI [33]: > 100 µM
- GI50 [34]: 4.39 µM
- TGI [34]: > 100 µM
- GI50 [35]: 3.27 µM
- TGI [35]: > 100 µM
- GI50 [36]: 3.61 µM
- TGI [36]: > 100 µM
- GI50 [37]: 3.22 µM
- TGI [37]: 37.5 µM
- GI50 [38]: 3.69 µM
- TGI [38]: > 100 µM
- GI50 [39]: 3.1 µM
- TGI [39]: 8.6 µM
- GI50 [40]: 6.05 µM
- TGI [40]: 75.1 µM
- GI50 [41]: 4.93 µM
- TGI [41]: > 100 µM
- GI50 [42]: 3.89 µM
- TGI [42]: 28.3 µM
- GI50 [43]: 3.79 µM
- TGI [43]: 15.1 µM
- GI50 [44]: 4.3 µM
- TGI [44]: 51.2 µM
- GI50 [45]: 3.27 µM
- TGI [45]: > 100 µM
- GI50 [46]: 1.94 µM
- TGI [46]: 9.96 µM
- GI50 [47]: 2.57 µM
- TGI [47]: > 100 µM
- GI50 [48]: 3.97 µM
- TGI [48]: > 100 µM
- GI50 [49]: 5.4 µM
- TGI [49]: 63.2 µM
- GI50 [50]: 4.3 µM
- TGI [50]: 28.4 µM
- GI50 [51]: 3.61 µM
- TGI [51]: 18.9 µM
- GI50 [52]: 14.2 µM
- TGI [52]: 86.4 µM
- GI50 [53]: 3.02 µM
- TGI [53]: 33.8 µM
- GI50 [54]: 2.49 µM
- TGI [54]: > 100 µM

Structure (SMILES): O=C1C=C(SCCO)C(=O)c2ccccc21
- GI50 [55]: 2.27 µM
- TGI [55]: 6.46 µM
- GI50 [1]: 13.9 µM
- TGI [1]: 27 µM
- GI50 [2]: 2.24 µM
- TGI [2]: 4.59 µM
- GI50 [3]: 1.54 µM
- TGI [3]: 2.87 µM
- GI50 [4]: 1.55 µM
- TGI [4]: 2.98 µM
- GI50 [5]: 2.08 µM
- TGI [5]: 6.97 µM
- GI50 [6]: 1.14 µM
- TGI [6]: 4.79 µM
- GI50 [7]: 2.11 µM
- TGI [7]: 4.29 µM
- GI50 [8]: 1.71 µM
- TGI [8]: 3.09 µM
- GI50 [9]: 1.46 µM
- TGI [9]: 3.33 µM
- GI50 [10]: 2.78 µM
- TGI [10]: 6.8 µM
- GI50 [11]: 1.8 µM
- TGI [11]: 3.68 µM
- GI50 [12]: 1.91 µM
- TGI [12]: 3.9 µM
- GI50 [13]: 0.451 µM
- TGI [13]: 2.46 µM
- GI50 [14]: 1.7 µM
- TGI [14]: 3.55 µM
- GI50 [56]: 1.3 µM
- TGI [56]: 3.01 µM
- GI50 [15]: 2.21 µM
- TGI [15]: 7.5 µM
- GI50 [16]: 2.58 µM
- TGI [16]: 6.73 µM
- GI50 [17]: 3.61 µM
- TGI [17]: 14.7 µM
- GI50 [18]: 1.28 µM
- TGI [18]: 4.25 µM
- GI50 [19]: 2.61 µM
- TGI [19]: 9.86 µM
- GI50 [20]: 1.53 µM
- TGI [20]: 3.26 µM
- GI50 [21]: 1.78 µM
- TGI [21]: 3.36 µM
- GI50 [22]: 1.81 µM
- TGI [22]: 3.29 µM
- GI50 [24]: 1.42 µM
- TGI [24]: 3.89 µM
- GI50 [57]: 1.34 µM
- TGI [57]: 2.65 µM
- GI50 [25]: 1.26 µM
- TGI [25]: 4.51 µM
- GI50 [26]: 16.3 µM
- TGI [26]: 36.6 µM
- GI50 [27]: 1.49 µM
- TGI [27]: 3.42 µM
- GI50 [28]: 1.84 µM
- TGI [28]: 3.59 µM
- GI50 [29]: 1.89 µM
- TGI [29]: 3.97 µM
- GI50 [30]: 2.16 µM
- TGI [30]: 5.82 µM
- GI50 [31]: 1.37 µM
- TGI [31]: 2.68 µM
- GI50 [32]: 1.42 µM
- TGI [32]: 2.75 µM
- GI50 [33]: 4.92 µM
- TGI [33]: 21.4 µM
- GI50 [34]: 2.89 µM
- TGI [34]: 10.8 µM
- GI50 [35]: 2.45 µM
- TGI [35]: 8.89 µM
- GI50 [36]: 2.09 µM
- TGI [36]: 5 µM
- GI50 [58]: 1.64 µM
- TGI [58]: 3.01 µM
- GI50 [37]: 1.92 µM
- TGI [37]: 5.07 µM
- GI50 [38]: 1.62 µM
- TGI [38]: 3 µM
- GI50 [39]: 1.65 µM
- TGI [39]: 3.03 µM
- GI50 [40]: 1.94 µM
- TGI [40]: 3.91 µM
- GI50 [41]: 2.01 µM
- TGI [41]: 4.02 µM
- GI50 [42]: 1.61 µM
- TGI [42]: 2.97 µM
- GI50 [43]: 3.97 µM
- TGI [43]: 16.3 µM
- GI50 [44]: 1.58 µM
- TGI [44]: 3.04 µM
- GI50 [45]: 1.9 µM
- TGI [45]: 4.18 µM
- GI50 [46]: 1.37 µM
- TGI [46]: 2.68 µM
- GI50 [47]: 2.17 µM
- TGI [47]: 5.75 µM
- GI50 [48]: 1.85 µM
- TGI [48]: 3.73 µM
- GI50 [49]: 1.47 µM
- TGI [49]: 4.1 µM
- GI50 [50]: 2.75 µM
- TGI [50]: 6.2 µM
- GI50 [51]: 1.76 µM
- TGI [51]: 3.25 µM
- GI50 [52]: 1.96 µM
- TGI [52]: 3.41 µM
- GI50 [53]: 1.6 µM
- TGI [53]: 3.04 µM
- GI50 [54]: 1.24 µM
- TGI [54]: 2.49 µM
